According to article PMC12810351, “Structure-effect relationship of phenolic compounds on α-amylase inhibition studied by isothermal titration calorimetry” (Current Research in Food Science, 2025):
Read-outs that look alike come from different tables or passages of the source.

Tests used:
[1] = molecular target: α-amylase; set-up: method as in Kaeswurm et al. (2019); conditions: substrate GalG2CNP, CNP UV/Vis, ref Kaeswurm et al. (2019), cited from earlier work
[2] = molecular target: T1, porcine pancreatic α-amylase (Sus scrofa, UniProt P00690); test: starch hydrolysis by α-amylase monitored by isothermal titration calorimetry (ITC); assay type: biochemical; conditions: for remaining activity at 25 µM: 25 μM EGCG, relative to control
T1 sequence (P00690 16-511): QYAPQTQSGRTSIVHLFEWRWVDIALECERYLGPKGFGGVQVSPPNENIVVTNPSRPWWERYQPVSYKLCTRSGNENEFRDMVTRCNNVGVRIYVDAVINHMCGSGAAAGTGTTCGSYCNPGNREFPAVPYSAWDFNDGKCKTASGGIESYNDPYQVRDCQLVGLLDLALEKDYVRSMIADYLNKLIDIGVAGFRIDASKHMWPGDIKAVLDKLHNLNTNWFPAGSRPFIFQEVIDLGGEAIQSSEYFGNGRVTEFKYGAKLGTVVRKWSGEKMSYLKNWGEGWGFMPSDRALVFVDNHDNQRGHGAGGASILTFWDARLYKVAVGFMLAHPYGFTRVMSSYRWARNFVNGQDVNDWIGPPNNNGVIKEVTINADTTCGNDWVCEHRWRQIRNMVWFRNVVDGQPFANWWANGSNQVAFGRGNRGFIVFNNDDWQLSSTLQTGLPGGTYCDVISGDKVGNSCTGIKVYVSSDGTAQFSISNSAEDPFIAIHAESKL
Description: The amylase stock solution was diluted each day and stored during the day at 4 °C.
The experiments were conducted using an Affinity ITC LV instrument with a cell volume of 182 μL (TA Instruments, Eschborn, Germany). […] These controls were conducted to determine the optimal injection volume to achieve maximal velocity (vmax) (S11). […] Enzyme kinetic constants were determined at 310 K.
The heat released during starch conversion was continuously monitored, with calculations performed using Microsoft Excel® software. The enzymatic rate (v) is directly proportional to the measured thermal power (eq (1)).(1) v=dP/dt=1/Vcell·ΔRHapp·dQ/dt
The reaction enthalpy ( ΔRHapp ) is determined by integrating the heat peak over its entire duration, divided by the number of substrate molecules converted:(2) ΔRHapp=∫t=0∞dQ/dtdt/nS
(dQ/dt)max [%], ΔRHapp [%] und vmax [%] are calculated in relation to daily control.
The substrate concentration at time t ([S]t) is calculated according to eq (3).(3) [S]t=∫t∞dQ/dtdt/∫0∞dQ/dtdt·[S]t=0
Therefore, the thermogram contains all the required data for calculating inhibition constants. The maximal conversion rate vmax and the Michaelis-Menten constant Km are determined from control experiments conducted in the absence of an inhibitor. In the presence of an inhibitor [I] the apparent values of vmaxapp and Kmapp are obtained. Competitive inhibition (Kic, eq (5)) is due to the formation of an enzyme-inhibitor complex (EI), whereas uncompetitive inhibition (Kiu, eq (5)) occurs when an inhibitor binds to a […]:(5) Kic=vmaxapp/Kmapp·[I]/(vmax/Km)−(vmaxapp/Kmapp)Kiu=vmaxapp·[I]/vmax−vmaxapp
The IC50 value, a key pharmacological metric, is used to compare the potency of inhibitors. […] The conversion rate (v0) was calculated from the thermogram according to eq (1), and subsequently plotted against the […]

[3] = molecular target: α-amylase; set-up: method as in Nyambe-Silavwe et al. (2015); conditions: substrate amylose, amylopectin, DNS UV/Vis; ref Nyambe-Silavwe et al. (2015); cited from earlier work

O=C(O[C@@H]1Cc2c(O)cc(O)cc2O[C@@H]1c1cc(O)c(O)c(O)c1)c1cc(O)c(O)c(O)c1 [EGCG, epigallocatechin gallate]
IC50 [1]: 58 µM
Ki ([1]; read-out: Kic): 124 µM
Ki ([1]; read-out: Kiu): 58 µM
remaining activity at 25 µM ([2]; read-out: (dQ/dt)max [%]): 38 ± 4%
remaining activity at 25 µM ([2]; read-out: vmax [%]): 49 ± 2%
reversibility of inhibition (from ΔRHapp) ([2]; 100 μM polyphenol (EGCG 25 μM)): irreversible aggregation
α (Kic/Kiu) ([2]; calculated based on the mass concentration): 0.73 ± 0.01
Ki ([2]; calculated based on the mass concentration, read-out: Kic [g/L] (converted)): 21.8 µM
Ki ([2]; calculated based on the mass concentration, read-out: Kiu [g/L] (converted)): 21.8 µM
Ki ([2]; competitive inhibition constant, substrate starch, ITC, 100 μM polyphenol (EGCG 25 μM), read-out: Kic): 19 ± 2 µM
inhibition mechanism suggested by Kic/Kiu ratios ([2]; polyphenol standards): preferentially bind to the enzyme
inhibition type ([2]; substrate starch, ITC): mixed
IC50 ([2]; substrate starch, ITC, calculated by eq (6), substrate concentration of 1 M (IC50 equivalent to Kiu), read-out: IC50*): 25 ± 2 µM
Ki ([2]; uncompetitive inhibition constant, substrate starch, ITC, 100 μM polyphenol (EGCG 25 μM), read-out: Kiu): 26 ± 2 µM
IC50 [3]: 5.3 to 60 µM
